The subject of data set [1] is glutathione reductase (GR) gene expression in LNCaP cells. In words: Oxidative stress and antioxidant defense qPCR-array, LNCaP. As to conditions: 12.5 µM, 18 h, relative to control cells. It is filed as cell-based, human. Here is the method: (§1) LNCaP and PC-3 cells were treated with subditine (1) (12.5 µM) for 18 h. RNA was extracted from PC-3 or LNCaP cells using RNeasy plus mini kit (Qiagen). 1 µg of RNA was reverse transcribed into cDNA using the RT2 first strand kit (SA Biosciences, Qiagen).cDNA was mixed with RT2 Real Time™ SYBR Green/fluorescein PCR master-mix and loaded into each 96 wells of the Human Oxidative Stress and Antioxidant Defense qPCR array according to the manufacturer’s protocol (SA Biosciences, Qiagen). Briefly, a total volume of 25 µl of PCR mixture, which included 12.5 µl of mastermix, 11.5 µl of double distilled water, and 1 µl of cDNA was loaded into each of the 96wells. qPCR were done using StepOne PLUS real-time PCR machine (Applied Biosystems). PCR amplification was conducted at 95°C for 10 min, followed by 40 cycles of 95°C for 15 sec and 60°C for 1 min. The mRNA expression for each gene was normalized using the average expression of five housekeeping genes:
(§2) β-actin (ACTB), β-2-microglobulin (β2M), hypoxanthine phosphoribosyltransferase 1 (HPRT1), ribosomal protein L13a (RPL13A) and glyceraldehyde-3-phosphate dehydrogenase (GAPDH). The ΔΔCt method was used for data analysis. Fold changes were calculated for each gene as the difference in gene expression between subditine (1) or non-treated control using the RT Profiler qPCR-array data analysis software.
In general terms: Real-time PCR tracks product formation cycle by cycle.

For data set [2], the system named is caspase-3/7 in LNCaP cells. In words: Caspase-Glo 3/7 bioluminescent assay, LNCaP. Format: cell-based, human. Here is the method: (§3) A time-dependent study of caspase-3/7, -8, and -9 activities was performed in triplicates using assay kits Caspase-Glo 3/7, 8, and 9 (Promega Corp.,Madison,WI, USA) on white 96-well microplate as described previously. A total of 10,000 cells per well was seeded and treated with […] of subditine (1) for 6, 12, 18, 24, and 30 hours. Then, 100 µL of the caspase-Glo reagent was added, incubated at room temperature for 30 minutes and measured using Tecan Infinite 200 Pro (Tecan, Mannedorf, Swizerland) microplate reader.

The subject of data set [3] is Bcl-2 expression in LNCaP cells. Description: Western blotting, Bcl-2 in LNCaP. Format: cell-based, human. Particulars: 24 h. Here is the method: (§4) To determine protein expression, 1×10^6 cells/mL were seeded and treated with subditine (1) or paclitaxel for 24 h. Whole cell extracts were prepared as previously described. Briefly, cells were collected, lysed and resolved on 10% SDS-polyacrylamide gels. After electrophoresis, the proteins were transferred to PVDF membranes (Millipore), blocked with 5% nonfat dry milk in PBS-T (0.05% Tween 20) for 1 hour at room temperature. Membranes were probed with primary rabbit anti-Bcl-2, Bcl-xL or p53 antibodies followed by horseradish peroxidase (HRP)-conjugated secondary anti-rabbit antibody (Cell Signaling Technology Inc., CA, USA). Membranes were stripped and reprobed with mouse anti-β-actin antibody as loading control (Santa Cruz Biotechnology Inc.). Protein-antibody complexes were detected with Amersham ECL prime Western blotting detection reagent (GE Healthcare, USA).
Background: Immunoblotting shows a protein as a band on a membrane.

Another data set concerns PC-3 cells. In words: Cellomics multiparameter cytotoxicity assay, PC-3. Format: cell-based, human. Here is the method: Cytotoxicity 3 kit (Thermo Scientific) was used as described previously. Briefly, 24 hours after subditine (1) treatment, MMP dye and the cell permeability dye were added to live cells and incubated for 30 minutes at 37°C. Cells were fixed, permeabilized, blocked with 1x blocking buffer before probing with primary cytochrome c and secondary DyLight 649 conjugated goat anti-mouse IgG antibodies for 1 hour each. Hoechst 33342 was added into the staining solution. Plates were then analyzed using the ArrayScan high content screening (HCS) system (Cellomics, PA, USA). Data were captured, extracted and analyzed with ArrayScan II Data Acquisition and Data Viewer version 3.0.

The test system of data set [4] is caspase-3/7 in PC-3 cells. In words: Caspase-Glo 3/7 bioluminescent assay, PC-3. It is filed as cell-based, human. Here is the method: as §3
In another data set the test system is caspase-9 in PC-3 cells. Description: Caspase-Glo 9 bioluminescent assay, PC-3. It is filed as cell-based, human. Here is the method: as §3
Data set [5] deals with Bcl-2 expression in PC-3 cells. In words: Western blotting, Bcl-2 in PC-3. Format: cell-based, human. As to conditions: 24 h. The method, then:
as §4

For a further data set, the system named is caspase-9 in LNCaP cells. In words: Caspase-Glo 9 bioluminescent assay, LNCaP. Format: cell-based, human. Here is the method: as §3
Data set [6] relates to RWPE-1 human normal prostate epithelial cells. In words: MTT cell proliferation assay, RWPE-1. Particulars: 24 hours, RWPE-1 normal cells, mean ± S.D. It is filed as cell-based. Here is the method: Human prostate normal cell line (RWPE-1) and human prostate cancer cell lines; LNCaP and PC-3, were purchased from the American Type Culture Collection (ATCC, Manassas, Virginia, USA). LNCaP and PC-3 cells were grown in Roswell Park Memorial Institute medium (RPMI) supplemented with 10% heat-inactivated fetal bovine serum (FBS, Sigma-Aldrich, St. Louis, MO), 1% penicillin and streptomycin. RWPE-1 cells were maintained in Keratinocyte Serum Free Medium (K-SFM, ATCC) supplemented with bovine pituitary extract (BPE) and human recombinant epidermal growth factor (EGF). Mediums were supplemented with 10% heat-inactivated fetal calf serum (Sigma.), 100 U/ml penicillin and […] streptomycin (Flowlab, Sydney, Australia). All cells were maintained in a humidified atmosphere of 5% CO2 in air at 37°C incubator.
The anti-proliferative activity was evaluated by performing MTT assays as previously described with minor modifications. Briefly, cells were seeded 24 hours prior to treatment in a 96-well plate at 5×10^4 cells/well in order to obtain 70% to 80% confluent cultures. The compounds were dissolved in DMSO (Sigma Chemical Co., St. Louis, Missouri, USA) followed by a 2×serial dilution for 10 points ranged from 0.825 µM to 100 µM. The 96-well plate was incubated for 24 hours at 37°C in a humidified atmosphere with 5% CO2. At the end of incubation, 50 µl of MTT solution (2 mg/ml; Sigma) was added to each well. The plate was then incubated for 4 hours. All medium was removed and the purple formazan crystal formed at the bottom of the wells was dissolved with 200 µl DMSO for 20 minutes. The absorbance at 570 nm was read on a spectrophotometric plate reader (Hidex). The proportion of surviving cells was calculated as: […]
Dose-response curves were constructed to obtain the IC50 values. Experimental data were derived from 3 independent experiments. The selectivity index was obtained by mean IC50 RWPE-1/mean IC50 of LNCaP or PC-3.
Background: Tetrazolium dyes change colour on reduction, which living cells bring about.

In data set [7] the test system is glutathione reductase (GR) gene expression in PC-3 cells. Description: Oxidative stress and antioxidant defense qPCR-array, PC-3. It is filed as cell-based, human. Particulars: PC-3, 12.5 µM, 18 h, relative to control cells. Here is the method:
as §1, §2

Where [8] appears, read: after 12 and 24 hours exposure, 12.25 µM.
Setting [9] is: PC-3, 24 h, compared to control.
The mark [10] stands for this setting: PC-3, after 12 and 24 hours exposure, 12.25 µM.

This is an account of results in article PMC3925085, “Subditine, a New Monoterpenoid Indole Alkaloid from Bark of Nauclea subdita (Korth.) Steud. Induces Apoptosis in Human Prostate Cancer Cells” (PLoS ONE, 2014).

The term IC50 denotes the concentration that inhibits the measured activity by half. A high value points to weaker potency.

A value given as a limit tells only on which side of the number the result lay.

Turning to `Cc1ncc2c(=O)n3c(cc2c1C=O)-c1[nH]c2ccccc2c1CC3` [Subditine, subditine], the “glutathione reductase (GR) gene expression fold change” value in [1] is listed as over 100 fold; in data set [7] it was over 20 fold. In addition, the caspase-3/7 activity entry in data set [2] (setting [8]) and in data set [4] (setting [10]) was “significant increase” throughout. For the same compound, the “time of peak caspase-3/7 activity” value in [2] (time points 6-30 hours) turned out to be 18 h; in data set [4] (PC-3, time points 6-30 hours), 18 h. Further, the Bcl-2 expression result in data set [3] is “down-regulation”. Further, the “cytochrome c release (cytosolic staining)” value with PC-3 cells (setting [9]) is “increased fluorescent-staining in the cytosol”. Also, the membrane permeability result in the data set on PC-3 cells (setting [9]) is on record as “higher membrane permeability”. Further, the “mitochondrial membrane potential (MMP) fluorescence intensity” value in the data set on PC-3 cells (PC-3, 24 hours) is listed as “dose-dependent reduction”. For the same compound, the caspase-9 activity entry in the data set on caspase-9 in PC-3 cells (setting [10]) and in the data set with caspase-9 in LNCaP cells (setting [8]) was “significant increase” in each case. Further, the “time of highest caspase-9 activity” value came out at 24 h in the data set on caspase-9 in PC-3 cells (PC-3, time points 6-30 hours) and 24 h in the data set on caspase-9 in LNCaP cells (time points 6-30 hours). For the same compound, the Bcl-2 protein expression entry in data set [5] (PC-3, 12.5 µM, compared to control) is recorded as “no significant change”; in data set [5] (PC-3, 25 and 50 µM), “drastically down-regulated”. In addition, the IC50 in [6] was 30.48 ± 0.08 µM.
